In patent US4005096A, “Therapeutically active phenoxyalkylamines” (Biersdorf Aktiengesellschaft, priority 1973, dated 1977):
Structures can show the parent of a compound that is named as a salt. Where two headings read alike, the source gives them in different places.

Tests used:
[1] = system: rats having artificially promoted high blood pressure (according to Goldblatt); assay: blood pressure reduction in rats having artificially promoted high blood pressure (according to Goldblatt), plethysmographic at base of tail; format: in vivo; conditions: Rattus norvegicus, single dose; for change in vivo at 20 mg/kg: 20 mg/kg p.o.
Protocol: To show the blood pressure reducing properties of typical compounds according to the invention, products of the Examples were administered, to rats having artificially promoted high blood pressure (according to Goldblatt), in the form of solution either by injection under the skin of the back (subcutaneously) or by means of a stomach tube (perorally). 1,2.5 and 4 hours (and 1.75 hours in the case of Compound A) after administration of the substance the systolic and diastolic blood pressures were measured plethysmographically at the base of the tail of the rat. In the following Table I there is given for each of the individual compounds (designated A to M) the average value of the blood pressure in mm Hg before the administration of the compound, the time (determined from the measuring time) of maximum blood pressure reduction and the maximum reduction of the systolic and diastolic blood pressures expressed as a percentage of the initial value after a single administration of the dose.

[2] = acute toxicity (LD50 Mouse), Litchfield and Wilcoxon; conditions: in vivo
From the text: Tests to determine the toxicity have been carried out. In each case 6 mice were given a particular dose of the compound to be tested combined with a suitable neutral diluent, administration being carried out perorally, intraveneously and/or intraperitoneally.
The statistical evaluation took place according to the method of J. F. Litchfield, Jr. and F. Wilcoxon in: "Journal of Pharmacology and Experimental Therapeutics", Volume 96 (1949), pages 99-113.
In the following Table II the toxicity of Compounds A to M are given.

[3] = sc, 10 mg/kg s.c., at the time given in the same line, read-out: Maximum blood pressure reduction, diastolic (percent of initial value)
[4] = sc, 10 mg/kg s.c., at the time given in the same line, read-out: Maximum blood pressure reduction, systolic (percent of initial value)

## COc1ccccc1OCCNCCc1ccncc1 [Compound A, N-[4-Pyridyl-ethyl(2)]-o-methoxy-phenoxyethylamine.2 HCl]
[1]; po, read-out: Maximum blood pressure reduction, diastolic (percent of initial value)
  change in vivo at 20 mg/kg: -32%
[1]; po, read-out: Maximum blood pressure reduction, systolic (percent of initial value)
  change in vivo at 20 mg/kg: -28%
[1]; [3]
  change in vivo at 10 mg/kg: -34%
[1]; [4]
  change in vivo at 10 mg/kg: -25%
[2]; ip
  LD50: 150 mg/kg
[2]; iv
  LD50: 53.5 mg/kg
[2]; po
  LD50: 290 mg/kg

## COc1ccccc1OCCNCCc1ccccn1 [Compound B, N-[2-Pyridyl-ethyl(2)]-o-methoxy-phenoxyethylamine . 2 HCl]
[1]; [3]
  change in vivo at 10 mg/kg: -23%
[1]; [4]
  change in vivo at 10 mg/kg: -20%
[2]; ip
  LD50: 150 mg/kg
[2]; iv
  LD50: 31.5 mg/kg

## COc1ccccc1OCCNCc1cccnc1 [Compound C, N-(3-Pyridyl-methyl)-o-methoxy-phenoxyethylamine .2 HCl]
[1]; [3]
  change in vivo at 10 mg/kg: -16%
[1]; [4]
  change in vivo at 10 mg/kg: -15%
[2]; ip
  LD50: 150 mg/kg
[2]; iv
  LD50: 73.3 mg/kg
[2]; po
  LD50: 390 mg/kg

## COc1ccccc1OCCNCc1ccccn1 [Compound D, N-(2-Pyridyl-methyl)-o-methoxy-phenoxyethylamine. 2 HCl]
[1]; [3]
  change in vivo at 10 mg/kg: -25%
[1]; [4]
  change in vivo at 10 mg/kg: -22%
[2]; ip
  LD50: 150 mg/kg
[2]; iv
  LD50: 51 mg/kg
[2]; po
  LD50: 750 mg/kg

## COc1ccccc1OCCNCc1ccncc1 [Compound E, N-(4-Pyridyl-methyl)-o-methoxy-phenoxyethylamine . 2 HCl]
[1]; po, 10 mg/kg p.o., read-out: Maximum blood pressure reduction, diastolic (percent of initial value)
  change in vivo at 10 mg/kg: -22%
[1]; po, 10 mg/kg p.o., read-out: Maximum blood pressure reduction, systolic (percent of initial value)
  change in vivo at 10 mg/kg: -20%
[1]; [3]
  change in vivo at 10 mg/kg: -18%
[1]; [4]
  change in vivo at 10 mg/kg: -15%
[2]; ip
  LD50: 364 mg/kg
[2]; iv
  LD50: 90.1 mg/kg
[2]; po
  LD50: 730 mg/kg

## Clc1ccccc1OCCCNCCc1ccncc1 [Compound F, N-[4-Pyridyl-ethyl(2)]-o-chloro-phenoxypropylamine dioxalate dihydrate]
[2]; ip
  LD50: > 800 mg/kg

## Clc1ccccc1OCCNCCc1ccncc1 [Compound G, N-[4-Pyridyl-ethyl(2)]-o-chloro-phenoxyethylamine dioxalate dihydrate]
[2]; ip
  LD50: ~200 mg/kg
[2]; iv
  LD50: 71.7 mg/kg

## Cc1cccnc1CNCCOc1ccccc1Cl [Compound H, N-[(3-Methyl-2-pyridyl)-methyl]-o-chloro-phenoxyethylamineoxalate hydrate]
[1]; [3]
  change in vivo at 10 mg/kg: -16%
[1]; [4]
  change in vivo at 10 mg/kg: -16%
[2]; ip
  LD50: 220 mg/kg
[2]; iv
  LD50: 50 mg/kg

## Cc1cccnc1CNCCOc1ccccc1C#N [Compound J, N-[(3-Methyl-2-pyridyl)-methyl]-o-cyano-phenoxyethylamineoxalate hydrate]
[1]; [3]
  change in vivo at 10 mg/kg: -12%
[1]; [4]
  change in vivo at 10 mg/kg: -11%
[2]; iv
  LD50: 73.3 mg/kg
[2]; po
  LD50: 660 mg/kg

## Clc1ccccc1OCCCCNCCc1ccncc1 [Compound K, N-[4-Pyridyl-ethyl(2)]-o-chloro-phenoxybutylamine dioxalate monohydrate]
[1]; [3]
  change in vivo at 10 mg/kg: -19%
[1]; [4]
  change in vivo at 10 mg/kg: -15%
[2]; ip
  LD50: 182 mg/kg
[2]; po
  LD50: 235 mg/kg

## N#Cc1ccccc1OCCNCCc1ccncc1 [Compound L, N-[4-Pyridyl-ethyl(2)]-o-cyano-phenoxyethylamine dioxalate hydrate]
[1]; [3]
  change in vivo at 10 mg/kg: -19%
[1]; [4]
  change in vivo at 10 mg/kg: -17%
[2]; ip
  LD50: 91 mg/kg
[2]; po
  LD50: 245 mg/kg

## COc1ccccc1OCCNCc1ncccc1O.Cl.Cl [Compound M, N-[(3-Hydroxy-2-pyridyl)-methyl]-o-methoxy-phenoxyethylamine dihydrochloride]
[1]; [3]
  change in vivo at 10 mg/kg: -12%
[1]; [4]
  change in vivo at 10 mg/kg: -11%
[2]; iv
  LD50: 55.6 mg/kg
